Data taken from patent US20240043439A1, “COMPOUNDS AS C5AR INHIBITORS” (Kira Pharmaceuticals (Suzhou) Ltd., priority 2020, published 2024).

Target: human C5a receptor (C5aR) (Homo sapiens (Human), UniProt P21730)
Experiment: Inhibition of C5a-C5aR binding (biotinylated human C5a, U937/C5aR cells, FACS)
Conditions: not given
Protocol: U937 cells were originally obtained from the American Type Culture Collection (ATCC) and transfected with human C5a receptor (C5aR). U937/C5aR cells were cultured at 37° C., 5% CO2 in RPMI1640 (Gibco) supplemented with 10% FBS (Gibco) and 350 µg/ml Geneticin (Gibco) and passaged every 3 days to maintain the density range from […] to 2×10^6 cells/ml.
Human C5a biotinylation was performed according to the procedure provided by manufacturer (Thermo Scientific, A39257). 10 mM solution of Sulfo-NHS-LC-Biotin was prepared by adding 180μl ultrapure H2O to the 1 mg vial immediately. 12 μl 10 mM biotin reagent was added to […] human C5a solution, gently pipetted for 3 seconds, and incubated on ice for 2 hours. Amicon ultra-0.5 centrifuge filter device (Millipore, UFC5003BK) was pre-rinsed with Milli-Q H2O, centrifuged at 14000 g for 5 min immediately before use. Up to […] sample (diluted by PBS) was added to the device and capped. The device was spinned at 14000 g for approximately 5 min. 250 μl PBS was added to the filter device, spinned at 14000 g for 5 min, and repeatedly washed 6 times. The filter device was separated from the microcentrifuge tube and placed upside down in a clean microcentrifuge tube, spinned for 2 min at 1000 g to transfer the concentrated sample from the device to the tube.
U937/C5aR cells were collected and washed twice by PBS, cells were suspended in PBS+0.1% BSA buffer at the density of 3×10^6 cells/ml. 100 μl cell suspension was added to a 96 well microplate. 50 μl compound diluted in assay buffer and 50 μl biotinylated ligand human C5a (30 nM) were added to corresponding wells in order and the plate was incubated on ice for 120 min and then centrifuged at 1000 rpm for 3-5 min at 4° C. Supernatant was removed and cells were washed by pre-cold PBS twice. 100 μl FITC conjugated streptavidin was added to cells, incubated on ice for another 30 min, and then centrifuged at 1000 rpm for 3-5 min at 4° C. Supernatant was removed and cells were washed by pre-cold PBS twice. 150 μl PBS was added to suspend the cells and signals were detected by FACS (Beckman, Cytoflex).

Sequence of human C5a receptor (C5aR) (P21730 whole entry): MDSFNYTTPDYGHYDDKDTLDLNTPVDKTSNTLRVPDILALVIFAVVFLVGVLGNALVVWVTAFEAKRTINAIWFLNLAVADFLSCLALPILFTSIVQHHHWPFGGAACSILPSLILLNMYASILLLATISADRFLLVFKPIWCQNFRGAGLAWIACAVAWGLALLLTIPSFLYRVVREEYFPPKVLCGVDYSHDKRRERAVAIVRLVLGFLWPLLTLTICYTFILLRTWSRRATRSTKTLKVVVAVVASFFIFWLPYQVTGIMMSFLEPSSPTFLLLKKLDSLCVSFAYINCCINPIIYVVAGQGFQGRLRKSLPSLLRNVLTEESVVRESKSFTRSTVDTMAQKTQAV

Compound	IC50
Cc1cccc(F)c1C(=O)N1C2COC[C@@H]2C[C@H](C(=O)Nc2ccc3c(cnn3C)c2)[C@@H]1c1ccc(NC2CCOCC2)cc1 (relative stereo) [Compound 134, cis-1-(2-fluoro-6-methylbenzoyl)-N-(1-methyl-1H-indazol-5-yl)-2-(4-((tetrahydro-2H-pyran-4-yl)amino)phenyl)octahydrofuro[3,4-b]pyridine-3-carboxamide]	2 to 5 µM
Cc1ccc(NC(=O)C2C[C@@H]3CCC[C@@H]3N(C(=O)c3c(C)cccc3F)C2c2ccc(NC3CCCC3)cc2)cc1C(F)(F)F (relative stereo) [Compound 155, cis-2-(4-(cyclopentylamino)phenyl)-1-(2-fluoro-6-methylbenzoyl)-N-(4-methyl-3-(trifluoromethyl)phenyl)octahydro-1H-cyclopenta[b]pyridine-3-carboxamide]	0.5 to 2 µM
Cc1ccc(NC(=O)C2CC(O)CN(C(=O)c3c(C)cccc3F)C2c2ccc(NC3CCCC3)cc2)cc1C(F)(F)F (stereo not shown) [Compound 42, 2-(4-(cyclopentylamino)phenyl)-1-(2-fluoro-6-methylbenzoyl)-5-hydroxy-N-(4-methyl-3-(trifluoromethyl)phenyl)piperidine-3-carboxamide]	< 0.05 µM
Cc1cccc(F)c1C(=O)N1[C@@H]2CCC[C@@H]2C[C@H](C(=O)Nc2ccc3c(cnn3C3COC3)c2)[C@@H]1c1ccc(NC2CCCC2)cc1 [Compound 83, (2R,3S,4aR,7aR)-2-(4-(cyclopentylamino)phenyl)-1-(2-fluoro-6-methylbenzoyl)-N-(1-(oxetan-3-yl)-1H-indazol-5-yl)octahydro-1H-cyclopenta[b]pyridine-3-carboxamide]	2 to 5 µM

Results, then the compound that gave them:

IC50	Compound
< 0.05 µM	Cc1cccc(F)c1C(=O)N1[C@@H]2CCC[C@@H]2C[C@H](C(=O)Nc2ccc3[nH]ncc3c2)[C@@H]1c1ccc(NC2CCCC2)cc1 [Compound 84, (2R,3S,4aR,7aR)-2-(4-(cyclopentylamino)phenyl)-1-(2-fluoro-6-methylbenzoyl)-N-(1H-indazol-5-yl)octahydro-1H-cyclopenta[b]pyridine-3-carboxamide]
2 to 5 µM	Cc1cccc(F)c1C(=O)N1[C@@H]2CCC[C@@H]2C[C@H](C(=O)Nc2ccc3c(cnn3Cc3ccccn3)c2)[C@@H]1c1ccc(NC2CCOCC2)cc1 [Compound 92, (2R,3S,4aR,7aR)-1-(2-fluoro-6-methylbenzoyl)-N-(1-(pyridin-2-ylmethyl)-1H-indazol-5-yl)-2-(4-((tetrahydro-2H-pyran-4-yl)amino)phenyl)octahydro-1H-cyclopenta[b]pyridine-3-carboxamide]
0.5 to 2 µM	Cc1cccc(F)c1C(=O)N1[C@@H]2CCC[C@@H]2C[C@H](C(=O)Nc2ccc3ncccc3c2)[C@@H]1c1ccc(NC2CCOCC2)cc1 [Compound 95, (2R,3S,4aR,7aR)-1-(2-fluoro-6-methylbenzoyl)-N-(quinolin-6-yl)-2-(4-((tetrahydro-2H-pyran-4-yl)amino)phenyl)octahydro-1H-cyclopenta[b]pyridine-3-carboxamide]
0.5 to 2 µM	Cc1cccc(F)c1C(=O)N1[C@@H]2CCC[C@@H]2C[C@H](C(=O)Nc2ccc3nn(C)cc3c2)[C@@H]1c1ccc(NC2CCOCC2)cc1 [Compound 97, (2R,3S,4aR,7aR)-1-(2-fluoro-6-methylbenzoyl)-N-(2-methyl-2H-indazol-5-yl)-2-(4-((tetrahydro-2H-pyran-4-yl)amino)phenyl)octahydro-1H-cyclopenta[b]pyridine-3-carboxamide]
2 to 5 µM	Cc1cccc(F)c1C(=O)N1[C@@H]2CCC[C@@H]2C[C@H](C(=O)Nc2ccc3c(cnn3C3COC3)c2)[C@@H]1c1ccc(NC2CCOCC2)cc1 [Compound 99, (2R,3S,4aR,7aR)-1-(2-fluoro-6-methylbenzoyl)-N-(1-(oxetan-3-yl)-1H-indazol-5-yl)-2-(4-((tetrahydro-2H-pyran-4-yl)amino)phenyl)octahydro-1H-cyclopenta[b]pyridine-3-carboxamide]
2 to 5 µM	Cc1cccc(F)c1C(=O)N1[C@@H]2CCC[C@@H]2C[C@H](C(=O)Nc2ccc3c(cnn3CCO)c2)[C@@H]1c1ccc(NC2CCOCC2)cc1 [Compound 102, (2R,3S,4aR,7aR)-1-(2-fluoro-6-methylbenzoyl)-N-(1-(2-hydroxyethyl)-1H-indazol-5-yl)-2-(4-((tetrahydro-2H-pyran-4-yl)amino)phenyl)octahydro-1H-cyclopenta[b]pyridine-3-carboxamide]
2 to 5 µM	Cc1cccc(F)c1C(=O)N1[C@@H]2CCC[C@@H]2C[C@H](C(=O)Nc2ccc3c(cnn3CCN(C)C)c2)[C@@H]1c1ccc(NC2CCOCC2)cc1 [Compound 103, (2R,3S,4aR,7aR)-N-(1-(2-(dimethylamino)ethyl)-1H-indazol-5-yl)-1-(2-fluoro-6-methylbenzoyl)-2-(4-((tetrahydro-2H-pyran-4-yl)amino)phenyl)octahydro-1H-cyclopenta[b]pyridine-3-carboxamide]
2 to 5 µM	Cc1cccc(F)c1C(=O)N1[C@@H]2CCC[C@@H]2C[C@H](C(=O)Nc2ccc3nn(CCO)cc3c2)[C@@H]1c1ccc(NC2CCOCC2)cc1 [Compound 104, (2R,3S,4aR,7aR)-1-(2-fluoro-6-methylbenzoyl)-N-(2-(2-hydroxyethyl)-2H-indazol-5-yl)-2-(4-((tetrahydro-2H-pyran-4-yl)amino)phenyl)octahydro-1H-cyclopenta[b]pyridine-3-carboxamide]
2 to 5 µM	Cc1cccc(F)c1C(=O)N1[C@@H]2CCC[C@@H]2C[C@H](C(=O)Nc2ccc3nn(CCN(C)C)cc3c2)[C@@H]1c1ccc(NC2CCOCC2)cc1 [Compound 105, (2R,3S,4aR,7aR)-N-(2-(2-(dimethylamino)ethyl)-2H-indazol-5-yl)-1-(2-fluoro-6-methylbenzoyl)-2-(4-((tetrahydro-2H-pyran-4-yl)amino)phenyl)octahydro-1H-cyclopenta[b]pyridine-3-carboxamide]
2 to 5 µM	Cc1cccc(F)c1C(=O)N1[C@@H]2CCC[C@@H]2C[C@H](C(=O)Nc2ccc3c(cnn3Cc3cccnc3)c2)[C@@H]1c1ccc(NC2CCOCC2)cc1 [Compound 107, (2R,3S,4aR,7aR)-1-(2-fluoro-6-methylbenzoyl)-N-(1-(pyridin-3-ylmethyl)-1H-indazol-5-yl)-2-(4-((tetrahydro-2H-pyran-4-yl)amino)phenyl)octahydro-1H-cyclopenta[b]pyridine-3-carboxamide]

Target: C5aR (Homo sapiens (Human), UniProt P21730)
Sequence (P21730 whole entry): as above
Experiment: Calcium mobilization (U937/C5aR or HEK293/C5aR cells, FLIPR)
Format: cell-based
Conditions: agonist human C5a at EC80, FLIPR
Protocol: U937/C5aR cells or HEK293/C5aR cells were washed by PBS and suspended in growth media at the density of 1×10^6 cells/ml. […] to the 384-well plate and culture for overnight. Transfer 250 nl compound solution to the cell plate using Echo, incubate for 60 min. Cells were added with Fluo-4 Direct™ dye and incubate for 50 min at 37° C. 5% CO2 and 10 m at room temperature. Place the cell plate into […] (Molecular Devices). Transfer 10 μl of 5-fold EC80 concentrations of agonist human C5a to the cell plates.

IC50	Compound
2 to 10 µM	Cc1ccc(NC(=O)[C@H]2CCCN[C@H]2c2ccc(N(c3ncnc4ccccc34)C3CCCC3)cc2)cc1C(F)(F)F [Compound 177, (2R,3S)-2-(4-(cyclopentyl(quinazolin-4-yl)amino)phenyl)-N-(4-methyl-3-(trifluoromethyl)phenyl)piperidine-3-carboxamide]
2 to 10 µM	Cc1ccc(NC(=O)[C@H]2CCCN[C@H]2c2ccc(N(c3ncnc4cnccc34)C3CCCC3)cc2)cc1C(F)(F)F [Compound 178, (2R,3S)-2-(4-(cyclopentyl(pyrido[3,4-d]pyrimidin-4-yl)amino)phenyl)-N-(4-methyl-3-(trifluoromethyl)phenyl)piperidine-3-carboxamide]
2 to 10 µM	Cc1ccc(NC(=O)[C@H]2CCCN[C@H]2c2ccc(N(c3nncc4ccccc34)C3CCCC3)cc2)cc1C(F)(F)F [Compound 179, (2R,3S)-2-(4-(cyclopentyl(phthalazin-1-yl)amino)phenyl)-N-(4-methyl-3-(trifluoromethyl)phenyl)piperidine-3-carboxamide]
2 to 10 µM	Cc1ccc(CNC(=O)[C@H]2C[C@H]3CCC[C@H]3N(C(=O)c3c(C)cccc3F)[C@H]2c2ccc(NC3CCCC3)cc2)cc1C(F)(F)F [Compound 185, (2R,3S,4aR,7aR)-2-(4-(cyclopentylamino)phenyl)-1-(2-fluoro-6-methylbenzoyl)-N-(4-methyl-3-(trifluoromethyl)benzyl)octahydro-1H-cyclopenta[b]pyridine-3-carboxamide]

Compound	IC50
(cis-3-(6-chloro-1,2,3,4-tetrahydroisoquinoline-2-carbonyl)-2-(4-(cyclopentylamino)phenyl)octahydro-1H-cyclopenta[b]pyridin-1-yl)(2-fluoro-6-methylphenyl)methanone [Compound 72]	2 to 10 µM
